# Reference: ChEMBL document CHEMBL1132340, “Novel prodrug approach for tertiary amines: synthesis and preliminary evaluation of N-phosphonooxymethyl prodrugs” (J Med Chem, 1999)
# Assays:
# Type in all cases: physicochemical
# [1] = pKa value of the compound
# [2] = pKa2 value of the compound; details: read-out: pKa2
# [3] = pKa1 value of the compound; details: read-out: pKa1
Compound,pKa [1],pKa [2],pKa [3]
CCCCc1oc2ccccc2c1C(=O)c1cc(I)c(OCC[N+](CC)(CC)COP(=O)(O)O)c(I)c1,6.56,–,–
C[N+]1(COP(=O)(O)O)CCN(C2=Nc3ccccc3Oc3ccc(Cl)cc32)CC1,–,7.5,–
O=P(O)(O)OC[N+]1(C/C=C/c2ccccc2)CCN(C(c2ccccc2)c2ccccc2)CC1,–,7.47,1.95
